Results from US20040253718A1, “Methods of producing neurons” (priority 2003, published 2004).

What was measured:
dermal-derived UMC = test: Culture of UMC in plasma clots to generate neurons; format: cell-based, human; conditions: aFGF as the only growth factor in the culture medium
Protocol: The presence of higher concentration of Ca^2+ than normally present in culture medium (i.e., about 2 mM) was essential for growth of neurons in the plasma clot UMC cultures.
Lyophilized bovine plasma (Sigma Aldrich Co., St. Louis, Mo.; Cat. No. P-4639) was reconstituted with an appropriate volume of tissue culture medium not containing heparin, e.g., DMEM or Neurobasal medium (see above). An appropriate volume of a stock solution of CaCl2 (e.g., 300 mM) was added to a series of plastic tissue culture dishes (one set having a diameter of 30 mm and another set having a diameter of 60 mm) so as to give a final concentration of 15 mM after addition of plasma. Plasma was added to the culture dishes (1 ml to 30 mm dishes and 2 ml to the 60 mm dishes), which were swirled in order to mix the CaCl2 and plasma. […]
The dishes were then incubated at room temperature or 37° C. until the plasma had clotted. […] The dishes were then stored in a tissue culture incubator at 37° C. in at atmosphere of 10% CO2 until ready for use. A small quantity (about 5 cells to about 10^5 cells per clot) of dermal-derived UMC prepared as described in Example 1 was added to each dish and the cells were allowed to settle onto each clot. […]

[1] = tested on: UMC from skin and adipose tissue; test: Culture of non-adherent UMC from skin and adipose tissue; format: cell-based, human
Protocol: Cells were harvested and enriched in vitro for UMC by initiation of cultures from a skin biopsy obtained from a normal healthy human volunteer as follows. Biopsies of about 10 to about 200 mm^3 were obtained from the post auriculum area, and fibroblast tissue culture initiated as described above using DMEM containing 4500 mg/L D-glucose, 2 mM L-glutamine, nonessential amino acids, and 10% FBS. Colonies of non-adherent, actively growing cells were observed after adherent fibroblasts had reached full confluence in passage two or three. This process could be shortened by initiation of the culture in low serum and by the presence of 5 ng/ml aFGF, or by growth of the cells in a plasma clot directly from tissue (see Example 2) with addition of 300 mM CaCl2 to a final concentration of 15 mM. […] The colonies were collected by aspiration of culture medium containing the floating colonies and centrifugation of this medium. The cells pelleted by centrifugation were transferred to new tissue culture vessels by direct seeding in fresh culture medium containing aFGF and heparin (DMEM containing 4500 mg/L D-glucose, 2 mM L-glutamine, 2.5% heat inactivated FBS, 5 ng/mL recombinant human aFGF, and 5 μg/mL heparin). The cell suspension was added to fresh tissue culture flasks, which were incubated at 37° C. […]

With “aFGF: recombinant human acidic fibroblast growth factor” the “growth of human neurons” value (dermal-derived UMC) was “Enhanced growth”, the “morphology of cells in culture” value ([1]; in the presence of aFGF) was “morphologically homogeneous in appearance and had a cobblestone-like morphology” and the “fate of cells in culture” value ([1]; upon removal of aFGF from the culture medium) was “most of the cells fully differentiated into adherent fibroblasts”.
